“Also recorded” adds a separate entry of the source.
Columns and labels:
LNCaP = experiment: Proliferation / IC50 by trypan blue cell counts, LNCaP; type: cell-based, human; settings: for effect on cell growth: 8 and 12 days; for IC50: Homo sapiens
Description: A transition state analog inhibitor of MTAP, Methylthio-DaDMe-Immucillin-A (MTDIA) was previously described and shown to be effective following a 6 or 12 day treatment at ˜10 and 100 nM MTDIA when 20 uM MTA was added to the media in both lung adenocarcinoma cell lines and head and neck squamous carcinoma cell lines, respectively [Basu I, et al. J Biol Chem. 2007; 282:21477-21486; Basu I, et al. J Biol Chem. 2011; 286:4902-491]. 32]. We synthesized MTDIA and the analytical data on the synthesized compound are shown in FIGS. 8A and 8B with the scheme used for synthesis shown in FIG. 6. […] In all three cell lines, the proliferation curves after 12 days of treatment show an IC50 of MTDIA>1 mM in the absence of MTA (FIG. 5B), but in the 10-100 nM range with the addition of 10 or 20 μM MTA. […] Nanomolar range IC50 values are highlighted.
IC50—The MTAP inhibitor (3R,4S)-1-[(9-Deaza-adenin-9-yl)methyl]-3-hydroxy-4-(methylthiomethyl)-pyrrolidine, or MT-DADMe-Immucillin-A (MTDIA) was synthesized following the synthesis scheme shown in FIG. 6 and based on a known approach. Cells were seeded at 125,000 cells/well (PC-3, DU145, LNCaP) in triplicate in 2 mLs of RPMI medium supplemented with 10% fetal bovine serum, and 1% penicillin streptomycin. After 24 hours the MTDIA and/or MTA was added at the indicated concentrations. Both medium and drug were refreshed every 48 hours. Every 96 hours the cells were trypsinized, ˜2% of cells were removed and counted by trypan blue exclusion and the rest were replated into a larger vessel.

spermine synthase = experiment: Western blot of spermine synthase in LNCaP; type: cell-based, human; settings: treatment with MTDIA
Description: (§1) FIG. 9. (A) Proliferation curves for LNCaP, DU145 and PC3 treated with MTDIA in the absence or presence of 10 or 20 uM MTA, for 4 and (B) 8 days. Results of biological triplicates are shown with absolute IC50s indicated for each condition. (C) Western blot analysis of FaDu, LNCaP, and DU145 cells after indicated treatments of MTA (0, 10, or 20 uM) or the respective 4 day IC25 and IC50 dose of MTDIA for each cell line plus or minus MTA immunoblotted with antibodies against MTAP, SMS, and SRM, with B-actin as a loading control. Western blot images are representative of biological triplicates. Band intensity values normalized to B-actin relative to control conditions are indicated below the respective band.
Western Blotting—Whole cell extracts were prepared in RIPA buffer (150 mM NaCl, 1.0% NP-40, 0.5% deoxycholate, 0.1% SDS, 50 mM Tris-HCl pH 8.0, 5 mM EDTA and 0.5 mM PMSF) supplemented with 1× proteinase inhibitor. Protein concentrations were determined by Bradford Assay (Thermo Scientific, Cat #1856209). Samples were resolved on polyacrylamide gels and transferred onto PVDF membranes (Biorad, Cat #162-0177). Blots were incubated with primary antibodies overnight at 4° and with secondaries for 1.5 hours at room temperature. Signals were visualized using Pierce ECL western blotting substrate (Thermo Scientific, Cat #32209) and exposed to film. […]

[1] = system: head and neck squamous carcinoma cell lines; settings: 12 day treatment, 20 uM MTA added to the media; cited from earlier work
LNCaP xenograft = LNCaP xenograft growth in nude mice, MTDIA in the drinking water; type: in vivo
Description: Human cell line xenografts with pharmacological treatment—1×10^6 wild type LNCaP cells were subcutaneously injected onto the flank of pelleted nude mice. At time of injection animals were randomly assigned to one of the following three groups; control, 9 or 21 mg/kg MTDIA in the drinking water with 20 mice in each group. Tumor measurements were assessed and recorded twice a week. Animals were sacrificed once tumors reached 2 cm3 or at the end point of the experiment (91 days).

MTAP [2] = experiment: Western blot of MTAP protein expression in LNCaP; type: cell-based, human; settings: 4 day IC25 and IC50 of MTDIA, presence or absence of MTA
Description: as §1, with “Results of biological triplicates are shown with absolute IC50s indicated for each condition.” left out, “triplicates.” for “triplicates. Band intensity values normalized to B-actin relative to control conditions are indicated below the respective band.”
(§2) Western Blotting—Whole cell extracts were prepared in RIPA buffer (150 mM NaCl, 1.0% NP-40, 0.5% deoxycholate, 0.1% SDS, 50 mM Tris-HCl pH 8.0, 5 mM EDTA and 0.5 mM PMSF) supplemented with 1× proteinase inhibitor. Protein concentrations were determined by Bradford Assay (Thermo Scientific, Cat #1856209). […] MTAP for Westerns was purchased from Proteintech™ (Cat #11475-1-AP. SRM and SMS were purchased from Abcam® (Cat #ab111884 and ab156879). B-actin antibody for Westerns was purchased from Sigma-Aldrich (Cat #A5441) and GAPDH was from Santa Cruz Biotecnology Inc. (Cat #sc-25778). Films were scanned using the Biorad ChemiDoc XRS, and band intensities were calculated using Image Lab™. Intensity values were normalized to B-actin loading control band intensities and made relative to control treatment conditions.

MTAP [3] = experiment: Western blot of MTAP protein expression in FaDu; type: cell-based, human; settings: 4 day IC25 and IC50 of MTDIA, presence or absence of MTA
Description: as §1, with “Results of biological triplicates are shown with absolute IC50s indicated for each condition.” left out, “triplicates.” for “triplicates. Band intensity values normalized to B-actin relative to control conditions are indicated below the respective band.”
as §2

Q: With CSC[C@H]1CN(Cc2c[nH]c3c(N)ncnc23)C[C@@H]1O [MTDIA, (3R,4S)-1-[(9-Deaza-adenin-9-yl)methyl]-3-hydroxy-4-(methylthiomethyl)-pyrrolidine] as the compound, how does the “effect on cell growth” value (LNCaP; 100 nM MTDIA, with 20 μM MTA) read?
A: dramatic effect on cell growth

Q: What about the “effect on cell growth” value (LNCaP; 100 nM MTDIA, without MTA) of the same compound?
A: little to no effect

Q: And the effect on growth (LNCaP; 100 nM MTDIA, 4 days, with or without 20 μM MTA)?
A: limited effects on growth

Q: What about the blocking cell growth (LNCaP; 6 days, low concentrations of MTDIA) of the same compound?
A: no effect at blocking cell growth

Q: And the IC50 (LNCaP; 96 h, 4 days, 0 μM MTA)?
A: > 1000 µM

Q: And the IC50 (LNCaP; 96 h, 4 days, 10 μM MTA)?
A: > 1000 µM

Q: What about the IC50 (LNCaP; 96 h, 4 days, 20 μM MTA) of the same compound?
A: 200 µM

Q: And the IC50 (LNCaP; 192 h, 8 days, 0 μM MTA)?
A: > 1000 µM

Q: What about the IC50 (LNCaP; 192 h, 8 days, 10 μM MTA) of the same compound?
A: 1 µM

Q: What about the IC50 (LNCaP; 192 h, 8 days, 20 μM MTA) of the same compound?
A: 0.085 µM

Q: What about the IC50 (LNCaP; 288 h, 12 days, 0 μM MTA) of the same compound?
A: > 1000 µM

Q: What about the IC50 (LNCaP; 288 h, 12 days, 10 μM MTA) of the same compound?
A: 0.011 µM

Q: And the IC50 (LNCaP; 288 h, 12 days, 20 μM MTA)?
A: 0.014 µM

Q: What about the IC50 (LNCaP; 288 h, 12 days, with 10 or 20 μM MTA) of the same compound?
A: 0.01 to 0.1 µM

Q: What about the spermine synthase expression (spermine synthase) of the same compound?
A: upregulated

Q: What about the effective concentration [1] of the same compound?
A: ~100 nM

Q: What about the xenograft growth (LNCaP xenograft; 21 mg/kg MTDIA daily in the drinking water, vs untreated control and 9 mg/kg dose) of the same compound?
A: significant (p<0.001) block in xenograft growth; also recorded: dramatically blocked LNCaP xenograft growth

Q: And the “xenograft growth after drug removal” value (LNCaP xenograft; 21 mg/kg group, drug removed at day 61, carried out to day 91)?
A: significant block in xenograft growth was maintained

Q: What about the MTAP expression (MTAP [2]) of the same compound?
A: upregulate expression of MTAP

Q: And the MTAP expression (MTAP [3])?
A: downregulates MTAP
